Legend:
Test in all cases: relative viability (nuclei count vs DMSO), 5 days (fraction); higher = more cells survive
[1] = compound: Cn1cc(-c2cnn3c(N)c(Br)c([C@@H]4CCCNC4)nc23)cn1 + CCNC(=O)c1noc(-c2cc(C(C)C)c(O)cc2O)c1-c1ccc(CN2CCOCC2)cc1 [Luminespib] (partner 0.01 µM)
Method in brief: (§1)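 Relative viability was taken as the ratio of nuclei in treated wells to nuclei in vehicle wells. Lung cancer cell lines in 1536-well plates received compounds by pin tool one day after seeding, either one drug alone or a fixed anchor-drug dose plus five library-drug doses (not always all listed) in √10 steps. Nuclei were counted on 4× images after 5 days of treatment, and values are medians of duplicate plates.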

[2] = compound: Cn1cc(-c2cnn3c(N)c(Br)c([C@@H]4CCCNC4)nc23)cn1 + COc1cc2c(Oc3ccc(NC(=O)C4(C(=O)Nc5ccc(F)cc5)CC4)cc3F)ccnc2cc1OCCCN1CCOCC1 [Foretinib] (partner 0.25 µM)
Method in brief: as §1

[3] = compound: Cn1cc(-c2cnn3c(N)c(Br)c([C@@H]4CCCNC4)nc23)cn1 + Cc1cc(Nc2cc(N3CCN(C)CC3)nc(Sc3ccc(NC(=O)C4CC4)cc3)n2)n[nH]1 [Tozasertib] (partner 0.1 µM)
Method in brief: as §1

[4] = compound: Cn1cc(-c2cnn3c(N)c(Br)c([C@@H]4CCCNC4)nc23)cn1 + NC(=O)Nc1cc(-c2cccc(F)c2)sc1C(=O)N[C@H]1CCCNC1 [AZD7762] (partner 0.2 µM)
Method in brief: as §1

Cell Line	relative viability ([1]; first compound 0.05 µM)	relative viability ([1]; first compound 0.1581 µM)	relative viability ([1]; first compound 0.5 µM)	relative viability ([1]; first compound 1.581 µM)	relative viability ([1]; first compound 5 µM)	relative viability ([2]; first compound 0.05 µM)	relative viability ([2]; first compound 0.1581 µM)	relative viability ([2]; first compound 0.5 µM)	relative viability ([2]; first compound 1.581 µM)	relative viability ([2]; first compound 5 µM)	relative viability ([3]; first compound 0.05 µM)	relative viability ([3]; first compound 0.1581 µM)	relative viability ([3]; first compound 0.5 µM)	relative viability ([3]; first compound 1.581 µM)	relative viability ([3]; first compound 5 µM)	relative viability ([4]; first compound 0.05 µM)	relative viability ([4]; first compound 0.1581 µM)	relative viability ([4]; first compound 0.5 µM)	relative viability ([4]; first compound 1.581 µM)	relative viability ([4]; first compound 5 µM)
201T	1.05	1.17	1.06	0.988	0.83	0.999	0.952	1.26	0.554	0.265	0.932	0.992	0.898	0.776	0.758	0.597	0.618	0.661	0.506	0.498
A549	–	–	–	–	–	1.03	1.2	0.93	0.664	0.711	–	–	–	–	–	–	–	–	–	–
A-427	1.36	0.923	0.889	0.571	0.403	1.05	1.11	1.01	1.09	0.712	0.185	0.246	0.206	0.192	0.154	0.72	0.569	0.566	0.502	0.344
ABC-1	0.439	0.338	0.484	0.361	0.265	0.951	1.07	1.02	0.872	0.4	0.159	0.156	0.219	0.127	0.136	0.689	0.984	0.755	0.599	0.5
BEN	0.305	0.463	0.311	0.332	0.337	0.689	0.535	0.563	0.763	0.514	0.606	0.494	0.467	0.714	0.489	0.659	0.69	0.688	0.667	0.533
CAL-12T	0.517	0.173	0.252	0.289	0.204	1.17	1.08	0.965	0.789	0.228	0.38	0.326	0.255	0.174	0.113	0.541	0.531	0.538	0.494	0.239
COR-L23	0.775	0.745	0.366	0.24	0.119	1.07	1.13	1.08	0.907	0.439	0.201	0.158	0.211	0.163	0.102	–	–	–	–	–
COR-L 105	0.712	0.754	0.696	0.581	0.484	0.83	0.995	0.994	0.782	1.46	0.31	0.4	0.293	0.312	0.321	–	–	–	–	–
Calu-6	–	–	–	–	–	0.879	0.876	0.758	0.319	0.134	–	–	–	–	–	–	–	–	–	–
ChaGo-K-1	0.574	0.537	0.612	0.509	0.452	0.937	0.934	0.873	0.888	0.78	0.222	0.22	0.227	0.224	0.225	0.843	0.801	0.866	0.761	0.755
EBC-1	–	–	–	–	–	0.107	0.0968	0.0834	0.0926	0.0939	–	–	–	–	–	–	–	–	–	–
EKVX	0.939	0.958	0.797	0.845	0.667	0.749	0.925	0.699	0.816	0.469	0.423	0.449	0.448	0.462	0.344	0.76	0.75	0.711	0.603	0.537
EMC-BAC-2	1.25	1.37	1.12	0.879	1.08	1	1.11	1.02	0.977	0.926	0.277	0.292	0.251	0.252	0.218	1.05	1.26	1.08	1.04	0.821
EPLC-272H	0.63	0.464	0.314	0.194	0.205	0.794	0.723	0.603	0.514	0.25	0.252	0.249	0.25	0.247	0.226	0.13	0.195	0.179	0.17	0.178
H3255	0.882	0.914	1.07	0.938	0.473	0.843	0.998	0.998	0.971	0.83	0.614	0.569	0.727	0.224	0.447	0.978	0.896	1.05	0.746	0.527
HARA	0.752	0.706	0.631	0.376	0.16	1.07	1.05	0.706	0.798	0.207	0.115	0.616	0.0879	0.0826	0.0524	0.401	0.34	0.292	0.26	0.199

— the supplement of paper PMC10307832
